Results as given in patent EP0268396B1, “4-(benzoyl)thiophene(or furan)-sulfonamide and derivatives thereof for the topical treatment of elevated intraocular pressures” (Merck & Co., Inc., priority 1986, dated 1988).
Structures can show the parent of a compound that is named as a salt.

Tested on: a-chymotrypsinized rabbit eye
Experiment: Effect of topically administered drug on the α-chymotrypsin-induced elevation of IOP in the rabbit
Type: in vivo
Conditions: dose 0.5 %, single 50 µl drop applied topically in hydroxyethylcellulose (HEC) vehicle; maximum, statistically significant drop in IOP during the 5 hour duration of the assay

Row | SMILES | MAX. IOP DROP (mm Hg)
1 | NS(=O)(=O)c1cc(C(=O)c2cccc(CNCc3ccccn3)c2)cs1 [3-( [drawing] CH2NHCH2-), 4-[3-(2-Pyridylmethylaminomethyl)]benzoylthiophene-2-sulfonamide dihydrochloride] | -4.0 mm Hg
2 | CC(C)CN(C)Cc1cccc(C(=O)c2csc(S(N)(=O)=O)c2)c1 [3-i-BuN(CH3)CH2-, 4-[3-(N-lsobutyl-N-methyl)aminomethyl]benzoylthiophene-2 sulfonamide] | -4.0 mm Hg
3 | CC(C)CNCc1cccc(C(=O)c2csc(S(N)(=O)=O)c2)c1 [Example 3-i-BuNHCH2-, 4-[3-(lsobutylaminomethyl)benzoyl]thiophene-2-sulfonamid] | -7.3 mm Hg
4 | CCCCNCc1ccc(C(=O)c2csc(S(N)(=O)=O)c2)cc1 [Example 4-n-BuNHCH2-] | -3.0 mm Hg
